Data taken from ChEMBL document CHEMBL4706489, “Hydrogen sulfide releasing oridonin derivatives induce apoptosis through extrinsic and intrinsic pathways” (Eur J Med Chem, 2020).

Tests used:
[1] = test system: L02; test: Cytotoxicity against human L02 cells assessed as cell viability after 72 hrs by MTT assay; conditions: L02, 72 h
[2] = test system: HCT-116; test: Antiproliferative activity against human HCT-116 cells assessed as reduction in cell viability after 72 hrs by MTT assay; conditions: HCT-116, 72 h
[3] = Cytotoxicity against human PBMC cells assessed as cell viability after 72 hrs by MTT assay
[4] = test system: K562; test: Antiproliferative activity against human K562 cells assessed as reduction in cell viability after 72 hrs by MTT assay; conditions: K562, 72 h
[5] = test system: B16; test: Antiproliferative activity against mouse B16 cells assessed as reduction in cell viability after 72 hrs by MTT assay; conditions: B16, 72 h
[6] = test system: HepG2; test: Antiproliferative activity against human HepG2 cells assessed as reduction in cell viability after 72 hrs by MTT assay; conditions: HepG2, 72 h
[7] = test system: MCF7; test: Antiproliferative activity against human MCF7 cells assessed as reduction in cell viability after 72 hrs by MTT assay; conditions: MCF7, 72 h
[8] = Prodrug conversion in THF/PBS buffer assessed as H2S release concentration at 0.1 mM in presence of TCEP after 20 mins by methylene blue staining based UV-Vis spectrophotometric method; type: ADME; conditions: 100 µM

| SMILES | IC50 [1] [µM] | IC50 [2] [µM] | IC50 [3] [µM] | IC50 [4] [µM] | IC50 [5] [µM] | IC50 [6] [µM] | IC50 [7] [µM] | Drug metabolism [8] [µM] |
| --- | --- | --- | --- | --- | --- | --- | --- | --- |
| C=C1C(=O)[C@]23[C@H](OC(=O)CCCC(=O)OCCCOc4ccc(-c5cc(=S)ss5)cc4)[C@H]1CC[C@H]2[C@@]12CO[C@@]3(O)[C@@H](O)[C@@H]1C(C)(C)CCC2=O | 27.2 | 23.7 | > 50 | 3.59 | 39.9 | 2.58 | 12.5 |  |
| C=C1C(=O)[C@]23[C@H](OC(=O)CCCC(=O)OCCOc4ccc(-c5cc(=S)ss5)cc4)[C@H]1CC[C@H]2[C@@]12CO[C@@]3(O)[C@@H](O)[C@@H]1C(C)(C)CC[C@@H]2OC(C)=O | 26.8 | > 50 | > 50 | 1.86 | 11.1 | 4.78 | > 50 |  |
| C=C1C(=O)[C@]23[C@H](OC(=O)CCCC(=O)OCCCOc4ccc(-c5cc(=S)ss5)cc4)[C@H]1CC[C@H]2[C@@]12CO[C@@]3(O)[C@@H](O)[C@@H]1C(C)(C)CC[C@@H]2OC(C)=O | 33.5 | 37.5 | > 50 | 5.93 | > 50 | 3.57 | 15.8 |  |
| C=C1C(=O)[C@]23[C@H](OC(=O)CCC(=O)OCCCOc4ccc(-c5cc(=S)ss5)cc4)[C@H]1CC[C@H]2[C@@]12CO[C@@]3(O)[C@@H](O)[C@@H]1C(C)(C)CC[C@@H]2O | 26.5 | 27.5 | > 50 | 2.17 | 27.5 | 4.45 | 14.7 | 15 |
| Oc1ccc(-c2cc(=S)ss2)cc1 | > 50 | > 50 | > 50 | > 50 | > 50 | > 50 | > 50 |  |
| C=C1C(=O)[C@]23[C@H](OC(=O)CCCC(=O)OCCCOc4ccc(-c5cc(=S)ss5)cc4)[C@H]1CC[C@H]2[C@@]12CO[C@@]3(O)[C@@H](O)[C@@H]1C(C)(C)CC[C@@H]2O | 40.9 |  | > 50 | 4.19 | > 50 | 5.93 | 16.6 | 15 |
| C=C1C(=O)[C@]23[C@H](OC(=O)CCC(=O)OCCCOc4ccc(-c5cc(=S)ss5)cc4)[C@H]1CC[C@H]2[C@@]12CO[C@@]3(O)[C@@H](O)[C@@H]1C(C)(C)CC[C@@H]2OC(C)=O | 22.3 | 22.1 | > 50 | 2.44 | 16.4 | 6.3 | 20.8 |  |
| C=C1C(=O)[C@]23[C@H](OC(=O)CCC(=O)OCCOc4ccc(-c5cc(=S)ss5)cc4)[C@H]1CC[C@H]2[C@@]12CO[C@@]3(O)[C@@H](O)[C@@H]1C(C)(C)CC[C@@H]2O | 34 | 42.6 | > 50 | 4.57 | > 50 | 5.36 | 17.9 | 15 |
| C=C1C(=O)[C@]23[C@H](OC(=O)CCC(=O)OCCCOc4ccc(-c5cc(=S)ss5)cc4)[C@H]1CC[C@H]2[C@@]12CO[C@@]3(O)[C@@H](O)[C@@H]1C(C)(C)CCC2=O | > 50 | 14 | > 50 | 7.12 | > 50 | 5.01 | 19.5 |  |
| C=C1C(=O)[C@]23[C@H](OC(=O)CCC(=O)OCCOc4ccc(-c5cc(=S)ss5)cc4)[C@H]1CC[C@H]2[C@@]12CO[C@@]3(O)[C@@H](O)[C@@H]1C(C)(C)CC[C@@H]2OC(C)=O | 29.9 | 36.9 | > 50 | 2.85 | > 50 | 5.89 | 24.7 |  |
| C=C1C(=O)[C@]23[C@H](OC(=O)CCC(=O)OCCCCCCOc4ccc(-c5cc(=S)ss5)cc4)[C@H]1CC[C@H]2[C@@]12CO[C@@]3(O)[C@@H](O)[C@@H]1C(C)(C)CCC2=O | > 50 | > 50 | > 50 | 5.87 | > 50 | 10.5 | 34.8 |  |
| C=C1C(=O)[C@]23[C@H](OC(=O)CCCC(=O)OCCOc4ccc(-c5cc(=S)ss5)cc4)[C@H]1CC[C@H]2[C@@]12CO[C@@]3(O)[C@@H](O)[C@@H]1C(C)(C)CCC2=O | 42.2 | 34.9 | > 50 | 5.75 | > 50 | 7.65 | 27.5 |  |
| C=C1C(=O)[C@]23[C@H](O)[C@H]1CC[C@H]2[C@@]12CO[C@@]3(O)[C@@H](O)[C@@H]1C(C)(C)CCC2=O | 28.5 | 10.7 | > 50 | 4.17 | 25.5 | 10.5 | 15.4 |  |
| C=C1C(=O)[C@]23[C@H](OC(=O)CCCC(=O)OCCCCCCO[C@H]4CCC(C)(C)[C@H]5[C@H](O)[C@]6(O)OC[C@@]45[C@@H]4CC[C@H]5C(=C)C(=O)[C@]46[C@@H]5OC(=O)CCCC(=O)OCCCCCCOc4ccc(-c5cc(=S)ss5)cc4)[C@H]1CC[C@H]2[C@@]12CO[C@@]3(O)[C@@H](O)[C@@H]1C(C)(C)CC[C@@H]2O | > 50 | > 50 | > 50 | 13.5 | > 50 | 10.1 | > 50 | 15 |
| C=C1C(=O)[C@]23[C@H](O)[C@H]1CC[C@H]2[C@@]12CO[C@@]3(O)[C@@H](O)[C@@H]1C(C)(C)CC[C@@H]2OC(C)=O [LASIOKAURIN] | 25.4 | 13.5 | > 50 | 5.21 | 32.6 | 11.9 | 19.8 |  |
| C=C1C(=O)[C@]23[C@H](OC(=O)CCCC(=O)OCCCCCCOc4ccc(-c5cc(=S)ss5)cc4)[C@H]1CC[C@H]2[C@@]12CO[C@@]3(O)[C@@H](O)[C@@H]1C(C)(C)CCC2=O | > 50 | > 50 | > 50 | 8.89 | > 50 | 9.33 | > 50 |  |
| C=C1C(=O)[C@]23[C@H](OC(=O)CCC(=O)OCCOc4ccc(-c5cc(=S)ss5)cc4)[C@H]1CC[C@H]2[C@@]12CO[C@@]3(O)[C@@H](O)[C@@H]1C(C)(C)CCC2=O | 39.6 | > 50 | > 50 | 8.79 | > 50 | 7.52 | 25.4 |  |
| C=C1C(=O)[C@]23[C@H](OC(=O)CCCC(=O)OCCOc4ccc(-c5cc(=S)ss5)cc4)[C@H]1CC[C@H]2[C@@]12CO[C@@]3(O)[C@@H](O)[C@@H]1C(C)(C)CC[C@@H]2O | 39.1 | 38.4 | > 50 | 4.89 | > 50 | 6.6 | 18.3 |  |
| O=c1[nH]cc(F)c(=O)[nH]1 [FLUOROURACIL] | > 50 |  | > 50 |  | 12.6 | 32.6 | 26.7 |  |
| C=C1C(=O)[C@]23[C@H](OC(=O)CCCC(=O)OCCCCCCOc4ccc(-c5cc(=S)ss5)cc4)[C@H]1CC[C@H]2[C@@]12CO[C@@]3(O)[C@@H](O)[C@@H]1C(C)(C)CC[C@@H]2OC(C)=O | > 50 | > 50 | > 50 | 13.9 | > 50 | 15.6 | > 50 |  |
